# Measured values from PubChem BioAssay AID328 (DTP/NCI, 2004).
# Values joined by “and” are separate entries in the source; they are usually repeats but may differ in a detail not shown here. Equal entries are not always repeated. Toxic doses and inconclusive results are not listed.
# Test system: BDF1 mice, P388 leukemia ip, median survival T/C
# Assay: NCI In Vivo Anticancer Drug Screen. Data for tumor model P388 Leukemia (intraperitoneal) in B6D2F1 (BDF1) mice
# Conditions: endpoint: median survival time, higher = longer survival
# Summary of the method: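 Steps: implant the tumour, treat one group with compound and another with vehicle, record survival, then divide treated by control.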
# [1] = dose: 100.0 mg/kg/injection, schedule: Q04DX003 (ip), vehicle: other
# [2] = dose: 200.0 mg/kg/injection, schedule: Q04DX003 (ip), vehicle: other
# [3] = dose: 50.0 mg/kg/injection, schedule: Q01DX009 (ip), vehicle: saline with Tween-80
# [4] = dose: 100.0 mg/kg/injection, schedule: Q01DX009 (ip), vehicle: saline with Tween-80
# [5] = dose: 200.0 mg/kg/injection, schedule: Q01DX009 (ip), vehicle: saline with Tween-80
# [6] = dose: 2.0 mg/kg/injection, schedule: Q01DX009 (ip), vehicle: saline
# [7] = dose: 4.0 mg/kg/injection, schedule: Q01DX009 (ip), vehicle: saline
# [8] = dose: 100.0 mg/kg/injection, schedule: Q04DX003 (ip), vehicle: saline
# [9] = dose: 200.0 mg/kg/injection, schedule: Q04DX003 (ip), vehicle: saline
# [10] = dose: 400.0 mg/kg/injection, schedule: Q04DX003 (ip), vehicle: saline
# [11] = dose: 40.0 mg/kg/injection, schedule: Q01DX009 (ip), vehicle: saline
# [12] = dose: 80.0 mg/kg/injection, schedule: Q01DX009 (ip), vehicle: saline
# [13] = dose: 100.0 mg/kg/injection, schedule: Q04DX003 (ip), vehicle: saline with Tween-80
# [14] = dose: 200.0 mg/kg/injection, schedule: Q04DX003 (ip), vehicle: saline with Tween-80
# [15] = dose: 400.0 mg/kg/injection, schedule: Q04DX003 (ip), vehicle: saline with Tween-80
# [16] = dose: 25.0 mg/kg/injection, schedule: Q01DX009 (ip), vehicle: saline
structure (smiles),measurement,setting,value
Cc1cccc(S(=O)(=O)F)c1,T/C,"dose: 37.5 mg/kg/injection, schedule: Q01DX009 (ip), vehicle: Klucel (hydroxypropylcellulose) (HPC)",104 % of control
same,T/C,"dose: 75.0 mg/kg/injection, schedule: Q01DX009 (ip), vehicle: Klucel (hydroxypropylcellulose) (HPC)",95 % of control
same,T/C,"dose: 150.0 mg/kg/injection, schedule: Q01DX009 (ip), vehicle: Klucel (hydroxypropylcellulose) (HPC)",90 % of control
COc1cc(/C=C/C(=O)c2ccc3c(c2)OCO3)ccc1OCc1ccccc1,T/C,"dose: 6.25 mg/kg/injection, schedule: Q01DX009 (ip), vehicle: water",100 % of control
same,T/C,"dose: 12.5 mg/kg/injection, schedule: Q01DX009 (ip), vehicle: water",100 % of control
same,T/C,"dose: 25.0 mg/kg/injection, schedule: Q01DX009 (ip), vehicle: water",106 % of control and 108 % of control
same,T/C,"dose: 50.0 mg/kg/injection, schedule: Q01DX009 (ip), vehicle: water",95 % of control and 110 % of control
same,T/C,"dose: 50.0 mg/kg/injection, schedule: Q04DX003 (ip), vehicle: water",86 % of control
same,T/C,"dose: 100.0 mg/kg/injection, schedule: Q01DX009 (ip), vehicle: water",95 % of control
same,T/C,"dose: 100.0 mg/kg/injection, schedule: Q04DX003 (ip), vehicle: water",100 % of control
same,T/C,"dose: 200.0 mg/kg/injection, schedule: Q01DX009 (ip), vehicle: water",97 % of control and 110 % of control
same,T/C,"dose: 200.0 mg/kg/injection, schedule: Q04DX003 (ip), vehicle: water",87 % of control
same,T/C,"dose: 400.0 mg/kg/injection, schedule: Q04DX003 (ip), vehicle: water",89 % of control
N#CC1c2ccccc2C=NN1C(=O)N(c1ccccc1)c1ccccc1 (stereo not drawn),T/C,[1],90 % of control
same,T/C,[2],100 % of control
same,T/C,"dose: 400.0 mg/kg/injection, schedule: Q04DX003 (ip), vehicle: other",100 % of control
CC1SC(c2ccccc2)N(c2nccs2)C1=O (stereo not drawn),T/C,[3],103 % of control
same,T/C,[4],89 % of control
same,T/C,[5],99 % of control
Cc1c(C)c2ccc(N)cc2[nH]c1=O,T/C,[6],118 % of control
same,T/C,[7],105 % of control
same,T/C,"dose: 8.0 mg/kg/injection, schedule: Q01DX009 (ip), vehicle: saline",99 % of control
same,T/C,"dose: 16.0 mg/kg/injection, schedule: Q01DX009 (ip), vehicle: saline",118 % of control
same,T/C,"dose: 25.0 mg/kg/injection, schedule: Q04DX003 (ip), vehicle: saline",98 % of control
same,T/C,"dose: 50.0 mg/kg/injection, schedule: Q04DX003 (ip), vehicle: saline",106 % of control
same,T/C,[8],106 % of control
same,T/C,[9],104 % of control
same,T/C,[10],107 % of control
CCN(CC)CCOc1ccccc1C,T/C,"dose: 20.0 mg/kg/injection, schedule: Q01DX009 (ip), vehicle: saline",107 % of control
same,T/C,"dose: 20.0 mg/kg/injection, schedule: Q04DX003 (ip), vehicle: saline",100 % of control
same,T/C,[11],100 % of control
same,T/C,"dose: 40.0 mg/kg/injection, schedule: Q04DX003 (ip), vehicle: saline",91 % of control
same,T/C,[12],89 % of control
same,T/C,"dose: 80.0 mg/kg/injection, schedule: Q04DX003 (ip), vehicle: saline",91 % of control
COc1cc2c(cc1OC)C(NC(C)=O)N(C)c1c-2ccc2cc3c(cc12)OCO3 (stereo not drawn),T/C,[11],168 % of control
same,T/C,[12],104 % of control
same,T/C,"dose: 120.0 mg/kg/injection, schedule: Q01DX009 (ip), vehicle: saline",100 % of control
COc1cc(OC)c(NC(=O)c2ccc([N+](=O)[O-])s2)cc1Cl,T/C,"dose: 25.0 mg/kg/injection, schedule: Q01DX005 (ip), vehicle: saline",102 % of control
same,T/C,"dose: 50.0 mg/kg/injection, schedule: Q01DX005 (ip), vehicle: saline",89 % of control
CCCC(=O)c1cc(O)c(O)cc1O,T/C,"dose: 12.5 mg/kg/injection, schedule: Q01DX009 (ip), vehicle: saline with Tween-80",95 % of control
same,T/C,"dose: 25.0 mg/kg/injection, schedule: Q01DX009 (ip), vehicle: saline with Tween-80",104 % of control
same,T/C,[3],106 % of control
CCCCNC(C)(C)C(SSSC(c1cccs1)C(C)(C)NCCCC)c1cccs1 (stereo not drawn),T/C,"dose: 44.0 mg/kg/injection, schedule: Q04DX003 (ip), vehicle: saline with Tween-80",113 % of control
same,T/C,[3],118 % of control
same,T/C,"dose: 66.0 mg/kg/injection, schedule: Q04DX003 (ip), vehicle: saline with Tween-80",100 % of control
same,T/C,[4],122 % of control
same,T/C,[13],118 % of control
same,T/C,"dose: 150.0 mg/kg/injection, schedule: Q04DX003 (ip), vehicle: saline with Tween-80",109 % of control
same,T/C,[5],118 % of control
same,T/C,[14],118 % of control
same,T/C,[15],122 % of control
Cc1ccc(S[Si](Sc2ccc(C)cc2)(Sc2ccc(C)cc2)Sc2ccc(C)cc2)cc1,T/C,"dose: 200.0 mg/kg/injection, schedule: Q04DX002 (ip), vehicle: saline with Tween-80",92 % of control
same,T/C,"dose: 400.0 mg/kg/injection, schedule: Q04DX002 (ip), vehicle: saline with Tween-80",100 % of control
CC(=O)C1CCC2C3CCC4=CC(=O)CC4(C)C3CCC12C (stereo not drawn),T/C,[3],95 % of control
same,T/C,"dose: 50.0 mg/kg/injection, schedule: Q04DX003 (ip), vehicle: saline with Tween-80",104 % of control
same,T/C,[4],90 % of control and 100 % of control
same,T/C,[13],95 % of control and 104 % of control
same,T/C,[5],90 % of control and 95 % of control
same,T/C,[14],90 % of control and 95 % of control
same,T/C,"dose: 400.0 mg/kg/injection, schedule: Q01DX009 (ip), vehicle: saline with Tween-80",86 % of control
same,T/C,[15],90 % of control
c1ccc(-c2nnc3ncccn23)cc1,T/C,[3],96 % of control
same,T/C,[4],93 % of control
same,T/C,[5],93 % of control
Cc1cc(O)c2c(c1O)C(=O)c1ccccc1C2=O,T/C,[8],91 % of control
same,T/C,[9],95 % of control
same,T/C,[10],95 % of control
O=C(O)C1(C(=O)O)CCC1.[NH2-].[NH2-].[Pt+2],T/C,"dose: 43.2 mg/kg/injection, schedule: Q01DX001 (ip), vehicle: saline",120 % of control
COC(=O)C(C)NC1=C(Cl)C(=O)C(NC(C)C(=O)OC)=C(Cl)C1=O (stereo not drawn),T/C,"dose: 50.0 mg/kg/injection, schedule: Q01DX009 (ip), vehicle: saline + Tween-80 + alcohol",98 % of control
same,T/C,"dose: 100.0 mg/kg/injection, schedule: Q01DX009 (ip), vehicle: saline + Tween-80 + alcohol",97 % of control
same,T/C,"dose: 200.0 mg/kg/injection, schedule: Q01DX009 (ip), vehicle: saline + Tween-80 + alcohol",101 % of control
COC(=O)CC1(O)C=CC(=O)C=C1,T/C,[6],165 % of control
same,T/C,"dose: 5.0 mg/kg/injection, schedule: Q01DX009 (ip), vehicle: saline",114 % of control
same,T/C,"dose: 10.0 mg/kg/injection, schedule: Q01DX009 (ip), vehicle: saline",116 % of control
same,T/C,[16],153 % of control
COc1ccc(C(=O)C(O)c2ccccc2)cc1 (stereo not drawn),T/C,[1],100 % of control
same,T/C,[2],100 % of control
C=C1C(=O)OC2CC(C)C3(O)OC(C)(CC(OC(=O)C(C)C)C12)CC3O (stereo not drawn),T/C,"dose: 13.0 mg/kg/injection, schedule: Q01DX009 (ip), vehicle: saline",120 % of control
same,T/C,[16],110 % of control
same,T/C,"dose: 50.0 mg/kg/injection, schedule: Q01DX009 (ip), vehicle: saline",95 % of control
C1CCC2C[N-]CCC2C1.C1CCC2C[N-]CCC2C1.C1CCC2C[N-]CCC2C1.C1CCC2C[N-]CCC2C1.[Cl][Rh][Cl] (stereo not drawn),T/C,"dose: 0.13 mg/kg/injection, schedule: Q01DX009 (ip), vehicle: saline",95 % of control
same,T/C,"dose: 0.25 mg/kg/injection, schedule: Q01DX009 (ip), vehicle: saline",104 % of control
same,T/C,"dose: 0.39 mg/kg/injection, schedule: Q01DX009 (ip), vehicle: saline with Tween-80",115 % of control
same,T/C,"dose: 0.5 mg/kg/injection, schedule: Q01DX009 (ip), vehicle: saline",119 % of control
same,T/C,"dose: 0.78 mg/kg/injection, schedule: Q01DX009 (ip), vehicle: saline with Tween-80",115 % of control
same,T/C,"dose: 0.88 mg/kg/injection, schedule: Q01DX009 (ip), vehicle: saline",153 % of control
same,T/C,"dose: 1.33 mg/kg/injection, schedule: Q01DX009 (ip), vehicle: saline",174 % of control
same,T/C,"dose: 1.56 mg/kg/injection, schedule: Q01DX009 (ip), vehicle: saline with Tween-80",150 % of control
same,T/C,[6],153 % of control
same,T/C,"dose: 2.66 mg/kg/injection, schedule: Q01DX009 (ip), vehicle: saline",159 % of control
same,T/C,"dose: 3.12 mg/kg/injection, schedule: Q01DX009 (ip), vehicle: saline with Tween-80",185 % of control
same,T/C,[7],168 % of control and 170 % of control
same,T/C,"dose: 6.0 mg/kg/injection, schedule: Q01DX009 (ip), vehicle: saline",100 % of control
